Our source for the TGI values is PubChem BioAssay (NCI).

Test systems include HS 578T breast; SK-MEL-28 melanoma; SK-OV-3 ovarian; KM12 colon; 786-0 renal; SF-295 CNS; DU-145 prostate; OVCAR-5 ovarian; HCT-15 colon; COLO 205 colon; LOX IMVI melanoma; A498 renal; RPMI-8226 leukemia; MDA-N; UACC-62 melanoma; SW-620 colon; SN12C renal; SNB-19 CNS; HCC-2998 colon; UO-31 renal.
What all share (assay): growth of human tumour cells (NCI), 48 h

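In this assay, cells in 96-well plates receive the compound at five concentrations for 48 hours. Endpoints are linearly interpolated between the surrounding concentrations. TGI denotes the concentration required for complete inhibition of growth.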

`C/C(=C\[Si](C)(C)c1ccco1)C(C)(O)[C@H](C)O` (stereo partly specified): the TGI with HS 578T breast, in the assay on SK-MEL-28 melanoma, in the assay on SK-OV-3 ovarian, in the assay on KM12 colon, in the assay on 786-0 renal and in the assay with SF-295 CNS was greater than 100 µM each time. Also, the TGI with DU-145 prostate, in the assay on OVCAR-5 ovarian, in the assay on HCT-15 colon, with COLO 205 colon, with LOX IMVI melanoma and in the assay with A498 renal was greater than 100 µM throughout. Also, the TGI in the assay on RPMI-8226 leukemia, in the assay on MDA-N, with UACC-62 melanoma, with SW-620 colon, in the assay on SN12C renal and in the assay on SNB-19 CNS was greater than 100 µM in each case. The compound also showed a TGI with HCC-2998 colon greater than 100 µM.

Take `CCC1=CC(OCc2ccccc2)C(CCN(Cc2ccccc2)C(=O)OCc2ccccc2)C1` (stereo unspecified): the TGI with HS 578T breast came out at 32.6 µM; with SK-MEL-28 melanoma, 37.8 µM; with UO-31 renal, 28.3 µM; in the assay with SK-OV-3 ovarian, 80.6 µM; in the assay with KM12 colon it was 29.7 µM; in the assay with 786-0 renal, 40.1 µM. For the same compound, the TGI in the assay on SF-295 CNS was determined as 35.3 µM; in the assay on DU-145 prostate, 30.2 µM; in the assay on OVCAR-5 ovarian it was 36.9 µM; in the assay with HCT-15 colon, 29.1 µM; with COLO 205 colon, 45.6 µM; with LOX IMVI melanoma, 32.7 µM. For the same compound, the TGI is 48.4 µM in the assay with A498 renal; 86.2 µM with RPMI-8226 leukemia; 54.1 µM in the assay on MDA-N; 24.8 µM with UACC-62 melanoma; 37 µM in the assay on SW-620 colon; 30.9 µM with SNB-19 CNS. Further, the TGI in the assay with HCC-2998 colon stood at 35.8 µM.

`c1ccc2c(c1)nc1ccccn12`: the TGI in the assay with HS 578T breast, in the assay with SK-MEL-28 melanoma, in the assay with UO-31 renal, in the assay on SK-OV-3 ovarian, in the assay on KM12 colon and with 786-0 renal was greater than 100 µM in each case. In addition, the TGI in the assay with SF-295 CNS was greater than 100 µM; with DU-145 prostate, greater than 100 µM; in the assay with OVCAR-5 ovarian it was greater than 100 µM; in the assay on HCT-15 colon, greater than 100 µM; with COLO 205 colon it was greater than 100 µM; with A498 renal it was 29.5 µM. In addition, the TGI in the assay on RPMI-8226 leukemia, with MDA-N, in the assay with UACC-62 melanoma, in the assay on SW-620 colon, in the assay on SN12C renal and in the assay with SNB-19 CNS was greater than 100 µM each time. The TGI with HCC-2998 colon is greater than 100 µM.

In the case of `Cc1nc(C)c(N2CCN(Cc3ccccc3)CC2)c(=O)[nH]1`, the TGI in the assay with HS 578T breast, in the assay on SK-MEL-28 melanoma, in the assay on UO-31 renal, in the assay on SK-OV-3 ovarian, in the assay with KM12 colon and with 786-0 renal was greater than 100 µM each time. Also, the TGI with SF-295 CNS, in the assay with DU-145 prostate, with HCT-15 colon, in the assay with COLO 205 colon, in the assay with LOX IMVI melanoma and with A498 renal was greater than 100 µM each time. Also, the TGI in the assay with RPMI-8226 leukemia, in the assay with MDA-N, with UACC-62 melanoma, with SW-620 colon, with SN12C renal and in the assay with SNB-19 CNS was greater than 100 µM in each case. Further, in the assay with HCC-2998 colon, the TGI is greater than 100 µM.

Regarding `N#Cc1c(C#N)c(SSc2c(C#N)c(C#N)c(N)n2-c2cccc3ccccc23)n(-c2cccc3ccccc23)c1N`, the TGI with HS 578T breast was greater than 57.6 µM; in the assay on SK-MEL-28 melanoma, greater than 100 µM; with UO-31 renal, 6.02 µM; with SK-OV-3 ovarian it was 54.8 µM; with KM12 colon, greater than 100 µM; in the assay with 786-0 renal it was 4.26 µM. The TGI in the assay on SF-295 CNS is 38.9 µM; in the assay with DU-145 prostate it was 47.6 µM; with OVCAR-5 ovarian, 49.9 µM; with HCT-15 colon it was 4.01 µM; with COLO 205 colon it was 10.6 µM; in the assay with A498 renal, greater than 63.6 µM. Further, the TGI with RPMI-8226 leukemia is greater than 100 µM; with MDA-N, 12.4 µM; in the assay on UACC-62 melanoma it was 46.6 µM; in the assay on SW-620 colon it was greater than 100 µM; in the assay on SN12C renal, 34.8 µM; in the assay with SNB-19 CNS, 46.4 µM. The TGI with HCC-2998 colon was found to be 85.8 µM.

In the case of `CCOC(=O)/C(=C\c1c[nH]c2ccccc12)P(=O)(OCC)OCC`, the TGI is greater than 100 µM with HS 578T breast; 94.3 µM with SK-MEL-28 melanoma; 90.4 µM with SK-OV-3 ovarian; greater than 100 µM with KM12 colon; 99.6 µM in the assay on 786-0 renal; greater than 100 µM in the assay with SF-295 CNS. Moreover, the TGI was greater than 100 µM with DU-145 prostate; 87.9 µM in the assay with OVCAR-5 ovarian; 72.6 µM with HCT-15 colon; 44.1 µM with COLO 205 colon; 40.3 µM in the assay on LOX IMVI melanoma; 76.1 µM in the assay on A498 renal. Besides, the TGI is 76.8 µM in the assay with RPMI-8226 leukemia; greater than 100 µM with MDA-N; greater than 100 µM with UACC-62 melanoma; greater than 100 µM in the assay with SW-620 colon; greater than 100 µM in the assay with SN12C renal; greater than 100 µM in the assay with SNB-19 CNS. In the assay on HCC-2998 colon, this compound came in with a TGI greater than 100 µM.

For the compound `COC(C)=NCCC1=CCCCC1`, the TGI in the assay on HS 578T breast, with SK-MEL-28 melanoma, in the assay with UO-31 renal, in the assay on SK-OV-3 ovarian, in the assay on KM12 colon and in the assay with 786-0 renal was greater than 100 µM each time. The TGI in the assay with SF-295 CNS, in the assay with DU-145 prostate, in the assay on OVCAR-5 ovarian, in the assay on HCT-15 colon, with COLO 205 colon and with A498 renal was greater than 100 µM in each case. Besides, the TGI in the assay on RPMI-8226 leukemia, in the assay with MDA-N, in the assay on UACC-62 melanoma, with SW-620 colon, in the assay on SNB-19 CNS and with HCC-2998 colon was greater than 100 µM throughout.

As for `COc1ccc(/C=C2/SC(=Nc3ccccc3)N(NC(=O)Cc3ccccc3)C2=O)cc1`, the TGI in the assay on HS 578T breast, in the assay on SK-MEL-28 melanoma, in the assay on UO-31 renal, with SK-OV-3 ovarian, with KM12 colon and with 786-0 renal was greater than 100 µM in each case. For the same compound, the TGI with SF-295 CNS, in the assay on DU-145 prostate, in the assay with OVCAR-5 ovarian, with HCT-15 colon, with COLO 205 colon and in the assay with A498 renal was greater than 100 µM each time. Further, the TGI with RPMI-8226 leukemia, in the assay on MDA-N, with UACC-62 melanoma, in the assay on SW-620 colon, in the assay on SN12C renal and in the assay on SNB-19 CNS was greater than 100 µM each time. The compound further came in with a TGI with HCC-2998 colon greater than 100 µM.
